Measurements: ChEMBL document CHEMBL1811859, “Second-generation sulfonamide inhibitors of D-glutamic acid-adding enzyme: activity optimisation with conformationally rigid analogues of D-glutamic acid” (Eur J Med Chem, 2011)
pIC50, pKi: −log10 of the molar value. In brackets after ≈: the same amount, converted by molar mass.

What was measured:
[1] = system: Citrobacter freundii; assay: Antimicrobial activity against Citrobacter freundii ATCC 8090 by broth dilution method; assay type: functional
[2] = system: Listeria monocytogenes; assay: Antimicrobial activity against Listeria monocytogenes ATCC 14780 by broth dilution method; assay type: functional
[3] = system: Escherichia coli; assay: Inhibition of Escherichia coli MurD ligase assessed as residual activity at 500 uM after 30 mins
[4] = system: Klebsiella pneumoniae; assay: Antimicrobial activity against Klebsiella pneumoniae ATCC 13883 by broth dilution method; assay type: functional
[5] = system: Escherichia coli; assay: Antimicrobial activity against Escherichia coli ATCC 8739 by broth dilution method; assay type: functional
[6] = system: Enterococcus faecalis; assay: Antimicrobial activity against Enterococcus faecalis ATCC 29212 by broth dilution method; assay type: functional
[7] = system: Bacillus subtilis; assay: Antimicrobial activity against Bacillus subtilis ATCC 6633 by broth dilution method; assay type: functional
[8] = system: Enterococcus hirae; assay: Antimicrobial activity against Enterococcus hirae ATCC 9790 by broth dilution method; assay type: functional
[9] = system: Enterococcus faecalis; assay: Antimicrobial activity against Enterococcus faecalis ATCC 19433 by broth dilution method; assay type: functional
[10] = system: Staphylococcus aureus; assay: Antimicrobial activity against methicillin-resistant Staphylococcus aureus ATCC 43300 by broth dilution method; assay type: functional
[11] = system: Pseudomonas aeruginosa; assay: Antimicrobial activity against Pseudomonas aeruginosa ATCC 27853 by broth dilution method; assay type: functional
[12] = system: Staphylococcus epidermidis; assay: Antimicrobial activity against Staphylococcus epidermidis ATCC 12228 by broth dilution method; assay type: functional
[13] = system: Micrococcus luteus; assay: Antimicrobial activity against Micrococcus luteus ATCC 9314 by broth dilution method; assay type: functional
[14] = system: Streptococcus pneumoniae; assay: Antimicrobial activity against Streptococcus pneumoniae D39 by broth dilution method; assay type: functional
[15] = system: Enterococcus faecium; assay: Antimicrobial activity against Enterococcus faecium ATCC 19434 by broth dilution method; assay type: functional
[16] = system: Streptococcus pneumoniae; assay: Antimicrobial activity against Streptococcus pneumoniae ATCC 49619 by broth dilution method; assay type: functional
[17] = system: Streptococcus pneumoniae; assay: Antimicrobial activity against Streptococcus pneumoniae ATCC 33400 by broth dilution method; assay type: functional
[18] = system: Listeria innocua; assay: Antimicrobial activity against Listeria innocua ATCC 33090 by broth dilution method; assay type: functional
[19] = system: Proteus mirabilis; assay: Antimicrobial activity against Proteus mirabilis ATCC 29936 by broth dilution method; assay type: functional
[20] = system: Staphylococcus aureus; assay: Antimicrobial activity against Staphylococcus aureus ATCC 25923 by broth dilution method; assay type: functional
[21] = system: Staphylococcus aureus; assay: Antimicrobial activity against methicillin-resistant Staphylococcus aureus PL1 by broth dilution method; assay type: functional
[22] = Inhibition of Escherichia coli MurD ligase
[23] = system: Escherichia coli; assay: Inhibition of Escherichia coli MurD ligase assessed as residual activity at 1 mM after 30 mins
[24] = Inhibition of Escherichia coli MurD ligase assessed as addition of D-[3H]glu to UDP-N-acetyl-muramoyl-L-alanine after 30 mins
[25] = Inhibition of Escherichia coli MurD ligase assessed as addition of D-[3H]glu to UDP-N-acetyl-muramoyl-L-alanine

| SMILES | MIC [1] | MIC [2] | MIC [4] | MIC [5] | MIC [6] | MIC [7] | MIC [8] | MIC [9] | MIC [10] | MIC [11] | MIC [12] | MIC [13] | MIC [14] | MIC [15] | MIC [16] | MIC [17] | MIC [18] | MIC [19] | MIC [20] | MIC [21] | other results |
| --- | --- | --- | --- | --- | --- | --- | --- | --- | --- | --- | --- | --- | --- | --- | --- | --- | --- | --- | --- | --- | --- |
| CCCCOc1ccc2cc(S(=O)(=O)Nc3cc(C(=O)O)cc(C(=O)O)c3)ccc2c1 | > 512 µg/mL | > 512 µg/mL | > 512 µg/mL | > 512 µg/mL | > 512 µg/mL | > 512 µg/mL | > 512 µg/mL | > 512 µg/mL | > 512 µg/mL | > 512 µg/mL | > 512 µg/mL | > 512 µg/mL | > 512 µg/mL | > 512 µg/mL | > 512 µg/mL | > 512 µg/mL | > 512 µg/mL | > 512 µg/mL | > 512 µg/mL | > 512 µg/mL | Activity [3]: 70% |
| CCCCOc1ccc2cc(S(=O)(=O)N3CCC(C(=O)O)CC3)ccc2c1 |  |  |  |  |  |  |  |  |  |  |  |  |  |  |  |  |  |  |  |  | Activity [3]: 97% |
| O=C(N/N=C/c1ccc(O)c(O)c1O)c1n[nH]c2ccccc12 |  |  |  |  |  |  |  |  |  |  |  |  |  |  |  |  |  |  |  |  | pIC50 [22]: 3.49 |
| N#Cc1ccc(COc2ccc3cc(S(=O)(=O)Nc4ccc(CC(=O)O)cc4)ccc3c2)c(F)c1 | > 512 µg/mL | > 512 µg/mL | > 512 µg/mL | > 512 µg/mL | > 512 µg/mL | > 512 µg/mL | > 512 µg/mL | > 512 µg/mL | > 512 µg/mL | > 512 µg/mL | > 512 µg/mL | > 512 µg/mL | 64 µg/mL (≈ 130 µM) | > 512 µg/mL | 64 µg/mL (≈ 130 µM) | 32 µg/mL (≈ 65.2 µM) | > 512 µg/mL | > 512 µg/mL | > 512 µg/mL | > 512 µg/mL | Activity [3]: 64% |
| N#Cc1ccc(COc2ccc3cc(S(=O)(=O)Nc4cc(C(=O)O)cc(C(=O)O)c4)ccc3c2)c(F)c1 | > 512 µg/mL | > 512 µg/mL | > 512 µg/mL | > 512 µg/mL | > 512 µg/mL | > 512 µg/mL | > 512 µg/mL | > 512 µg/mL | > 512 µg/mL | > 512 µg/mL | > 512 µg/mL | > 512 µg/mL | > 512 µg/mL | > 512 µg/mL | > 512 µg/mL | > 512 µg/mL | > 512 µg/mL | > 512 µg/mL | > 512 µg/mL | > 512 µg/mL | Activity [23]: 2%; pIC50 [24]: 4.30; pKi [24]: 4.47 |
| N#Cc1ccc(COc2ccc3cc(S(=O)(=O)Nc4ccc(C(=O)O)cc4C(=O)O)ccc3c2)c(F)c1 | > 512 µg/mL | > 512 µg/mL | > 512 µg/mL | > 512 µg/mL | > 512 µg/mL | > 512 µg/mL | > 512 µg/mL | > 512 µg/mL | > 512 µg/mL | > 512 µg/mL | > 512 µg/mL | > 512 µg/mL | > 512 µg/mL | > 512 µg/mL | > 512 µg/mL | > 512 µg/mL | > 512 µg/mL | > 512 µg/mL | > 512 µg/mL | > 512 µg/mL | Activity [23]: 0.79%; pIC50 [24]: 5.08; pKi [24]: 5.24 |
| N#Cc1ccc(COc2ccc3cc(S(=O)(=O)Nc4ccc(O)cc4C(=O)O)ccc3c2)c(F)c1 | > 512 µg/mL | > 512 µg/mL | > 512 µg/mL | > 512 µg/mL | > 512 µg/mL | > 512 µg/mL | > 512 µg/mL | > 512 µg/mL | > 512 µg/mL | > 512 µg/mL | > 512 µg/mL | > 512 µg/mL | > 512 µg/mL | > 512 µg/mL | > 512 µg/mL | > 512 µg/mL | > 512 µg/mL | > 512 µg/mL | > 512 µg/mL | > 512 µg/mL | Activity [3]: 3%; pIC50 [24]: 4.34; pKi [24]: 4.49 |
| CCCCOc1ccc2cc(S(=O)(=O)Nc3cc(C(=O)O)ccc3C(=O)O)ccc2c1 | > 512 µg/mL | > 512 µg/mL | > 512 µg/mL | > 512 µg/mL | > 512 µg/mL | > 512 µg/mL | > 512 µg/mL | > 512 µg/mL | > 512 µg/mL | > 512 µg/mL | > 512 µg/mL | > 512 µg/mL | > 512 µg/mL | > 512 µg/mL | > 512 µg/mL | > 512 µg/mL | > 512 µg/mL | > 512 µg/mL | > 512 µg/mL | > 512 µg/mL | Activity [3]: 78% |
| CCCCOc1ccc2cc(S(=O)(=O)N[C@@H](CCC(=O)O)C(=O)O)ccc2c1 |  |  |  |  |  |  |  |  |  |  |  |  |  |  |  |  |  |  |  |  | pIC50 [22]: 3.15 |
| CCCCOc1ccc2cc(S(=O)(=O)Nc3ccc(C(=O)O)cc3C(=O)O)ccc2c1 | > 512 µg/mL | > 512 µg/mL | > 512 µg/mL | > 512 µg/mL | > 512 µg/mL | > 512 µg/mL | > 512 µg/mL | > 512 µg/mL | > 512 µg/mL | > 512 µg/mL | > 512 µg/mL | > 512 µg/mL | > 512 µg/mL | > 512 µg/mL | > 512 µg/mL | > 512 µg/mL | > 512 µg/mL | > 512 µg/mL | > 512 µg/mL | > 512 µg/mL | Activity [23]: 8%; pIC50 [24]: 3.90; pKi [24]: 4.06 |
| CC(=O)N[C@H]1C(OP(=O)(O)O)O[C@H](CO)[C@@H](O)[C@@H]1O[C@H](C)C(=O)N[C@@H](C)P(=O)(O)CC(CCC(=O)O)C(=O)O (some centres not stated) |  |  |  |  |  |  |  |  |  |  |  |  |  |  |  |  |  |  |  |  | pIC50 [25]: 7.70 |
| N#Cc1ccc(COc2ccc3cc(S(=O)(=O)N4CCC(C(=O)O)CC4)ccc3c2)c(F)c1 |  |  |  |  |  |  |  |  |  |  |  |  |  |  |  |  |  |  |  |  | Activity [3]: 94% |
| CCCCOc1ccc2cc(S(=O)(=O)Nc3ccc(CC(=O)O)cc3)ccc2c1 | > 512 µg/mL | > 512 µg/mL | > 512 µg/mL | > 512 µg/mL | 256 µg/mL (≈ 619 µM) | 512 µg/mL (≈ 1240 µM) | 512 µg/mL (≈ 1240 µM) | 512 µg/mL (≈ 1240 µM) | 256 µg/mL (≈ 619 µM) | > 512 µg/mL | 256 µg/mL (≈ 619 µM) | 512 µg/mL (≈ 1240 µM) | > 512 µg/mL | 512 µg/mL (≈ 1240 µM) | > 512 µg/mL | > 512 µg/mL | > 512 µg/mL | > 512 µg/mL | 256 µg/mL (≈ 619 µM) | 256 µg/mL (≈ 619 µM) | Activity [3]: 97% |
| CCCCOc1ccc2cc(S(=O)(=O)Nc3ccc(O)cc3C(=O)O)ccc2c1 | > 512 µg/mL | > 512 µg/mL | > 512 µg/mL | > 512 µg/mL | 256 µg/mL (≈ 616 µM) | > 512 µg/mL | 256 µg/mL (≈ 616 µM) | > 512 µg/mL | > 512 µg/mL | > 512 µg/mL | > 512 µg/mL | 256 µg/mL (≈ 616 µM) | 64 µg/mL (≈ 154 µM) | 256 µg/mL (≈ 616 µM) | 64 µg/mL (≈ 154 µM) | 32 µg/mL (≈ 77 µM) | > 512 µg/mL | > 512 µg/mL | > 512 µg/mL | > 512 µg/mL | Activity [3]: 76% |
